Literature values as cited in US11503825B2, “Pyrethroid formulations” (Vive Crop Protection Inc., priority 2011, dated 2022).
Values after ≈ are worked out from the molar mass of the structure shown. “Also recorded” adds a separate entry of the source. Like-named read-outs stand apart in the source and are kept apart here.

Experiments:
[1] = cited from earlier work
[2] = cited from earlier work; for Stability data: in words
[3] = cited from earlier work; for Photolytic stability: in words; for Photolysis DT50: aqueous solution
[4] = cited from earlier work; remark: listed apart in the source
[5] = hydrolysis prevents measurement; cited from earlier work

Beta-cypermethrin
KOW logP [1]: logP = 4.7
Stability data [2]: Hydrolyzed in strongly alkaline media. DT50
DT50 (extrapolated) ([2]; pH 3, 5, 6, 25° C.): 50 days
DT50 (extrapolated) ([2]; pH 7, 25° C.): 40 days
DT50 (extrapolated) ([2]; pH 8, 25° C.): 20 days
DT50 (extrapolated) ([2]; pH 9, 25° C.): (pH 8), 15 d (pH 9) (all at 25° C.)

CC1(C)[C@H](C(=O)O[C@H](C#N)c2cccc(Oc3ccccc3)c2)[C@@H]1C=C(Br)Br [Deltamethrin, (S)-α-cyano-3-phenoxybenzyl (1R,3R)-3-(2,2-dibromovinyl)-2,2-dimethylcyclopropanecarboxylate]
Photolytic stability [3]: Ester bond splitting and bromine loss under
KOW logP ([1]; 25° C.): logP = 4.6
Stability data [2]: stable at pH 5 and 7
DT50 ([2]; pH 8): 31 days
DT50 ([2]; pH 9): 2.5 days

Cc1c(COC(=O)[C@@H]2[C@H](/C=C(\Cl)C(F)(F)F)C2(C)C)cccc1-c1ccccc1 (racemic) [Bifenthrin, 2-methylbiphenyl-3-ylmethyl (Z)-(1RS,3RS)-3-(2-chloro-3,3,3-trifluoroprop-1-enyl)-2,2-dimethylcyclopropanecarboxylate]
Photolytic stability DT50 ([3]; in natural daylight): DT50 255 days in natural daylight^+
Soil DT50 (lab.) ([2]; range): 53 to 192 days

CC(C)[C@H](C(=O)O[C@H](C#N)c1cccc(Oc2ccccc2)c1)c1ccc(Cl)cc1 [Esfenvalerate, (S)-α-cyano-3-phenoxybenzyl (S)-2-(4-chlorophenyl)-3-methylbutyrate]
Photolytic stability [3]: Stable^+
Solubility in hexane ([4]; 20° C.): 77 mg/mL (≈ 183 mM)
Solubility in water ([4]; 20° C.): water 0.002 mg/l (20° C.)
Solubility in xylene, acetone, chloroform, ethanol, methanol, DMF, hexylene glycol ([4]; 20° C.): > 450 mg/mL
KOW logP ([1]; pH 7, 25° C.): logP = 6.5
Stability data [2]: Stable to hydrolysis at pH 5, 7 and 9 (25° C.).

CC(C)[C@@H](C(=O)O[C@@H](C#N)c1cccc(Oc2ccccc2)c1)c1ccc(Cl)cc1 (racemic) [Fenvalerate, (RS)-α-cyano-3-phenoxybenzyl (RS)-2-(4-chlorophenyl)-3-methylbutyrate]
Photolytic stability [3]: Decarboxylation occurs in light^+
Solubility in methanol ([4]; 20° C.): methanol 84 (all in g/l, 20° C.)
Solubility in n-hexane ([4]; 20° C.): 53 g/L (≈ 126 mM)
Solubility in xylene ([4]; 20° C.): > 200 g/L
Solubility in water ([4]; 25° C.): water <10 μg/l (25° C.)
KOW logP ([1]; 23° C.): logP = 5.01
Stability data [2]: rapidly hydrolyzed in alkaline media

CC1(C)C(C=C(Cl)Cl)C1C(=O)OC(C#N)c1cccc(Oc2ccccc2)c1 (racemic) [Zeta-cypermethrin, A mixture of the stereoisomers (S)-α-cyano-3-phenoxybenzyl (1RS,3RS;1RS,3SR)-3-(2,2-dichlorovinyl)-2,2-dimethylcyclopropanecarboxylate where the ratio of the (S);(1RS,3RS) isomeric pair to the (S);(1RS,3SR) isomeric pair lies in the ratio range 45-55 to 55-45]
Photolysis DT50 [3]: Photolysis DT50 (aqueous solution) 20-26 days^+
Hydrolysis DT50 ([2]; pH 7, 25° C.): 25 days
Hydrolysis DT50 ([2]; pH 9, 50° C.): 1.5 h (pH 9, 50° C.)

CC1(C)[C@H](C(=O)O[C@@H](C#N)c2cccc(Oc3ccccc3)c2)[C@@H]1/C=C(\Cl)C(F)(F)F (racemic) [Cyhalothrin, (RS)-α-cyano-3-phenoxybenzyl (Z)-(1RS,3RS)-3-(2-chloro-3,3,3-trifluoroprop-1-enyl)-2,2-dimethylcyclopropanecarboxylate]
pKa [5]: > 9
Photolytic stability [3]: Stable to light; slow hydrolysis by water in
Solubility in acetone, dichloromethane, methanol, diethyl ether, ethyl acetate, hexane, toluene [4]: acetate, hexane, toluene: >500 g/L
Solubility in water ([4]; pH 5, 20° C.): water: 4.2 ug/L (pH 5, 20° C.)
KOW logP ([1]; 20° C.): logP = 6.9
Stability data [2]: Slowly hydrolyzed by water in sunlight at pH 7-9,; also recorded: more rapidly at pH >9

A mixture of the enantiomers (R)-α-cyano-3-phenoxybenzyl (1S,3R)-3-(2,2-dichlorovinyl)-2,2-dimethylcyclopropanecarboxylate and (S)-α-cyano-3-phenoxybenzyl (1R,3S)-3-(2,2-dichlorovinyl)-2,2-dimethylcyclopropanecarboxylate in the ratio 1:1 [Theta-cypermethrin]
DT50 (extrapolated) ([2]; pH 3, 5, 6, 25° C.): 50 days
DT50 (extrapolated) ([2]; pH 7, 25° C.): 20 days
DT50 (extrapolated) ([2]; pH 8, 25° C.): 18 days
DT50 (extrapolated) ([2]; pH 9, 25° C.): 10 days

CC1(C)[C@H](C(=O)O[C@H](C#N)c2cccc(Oc3ccccc3)c2)[C@@H]1/C=C(\Cl)C(F)(F)F [Gamma-cyhalothrin, (S)-α-cyano-3-phenoxybenzyl (Z)-(1R,3R)-3-(2-chloro-3,3,3-trifluoroprop-1-enyl)-2,2-dimethylcyclopropanecarboxylate]
Photolysis DT50 [3]: Photolysis DT50 (aqueous solution) 10.6 days^+
Solubility in water ([4]; 20° C.): water 2.1 × 10^−3 mg/l (20° C.)
KOW logP ([1]; 19° C.): logP = 4.96

CC1(C)C(C=C(Cl)Cl)C1C(=O)OCc1cccc(Oc2ccccc2)c1 (stereo not drawn) [Permethrin, 3-phenoxybenzyl (1RS,3RS;1RS,3SR)-3-(2,2-dichlorovinyl)-2,2-dimethylcyclopropanecarboxylate]
Photolytic stability [3]: Photolysis in water^++
Solubility in methanol ([4]; 25° C.): 258 (all in g/kg, 25° C.)
Solubility in xylene, hexane ([4]; 25° C.): xylene, hexane >1000, methanol g/kg
Solubility in water ([4]; pH 7, 20° C.): water 6 × 10^−3mg/l (pH 7, 20° C.);
Solubility in water ([4]; trans- isomers, pH not stated, 25° C.): stated, 25° C.); trans- isomers 0.13 mg/l
DT50 ([2]; pH 5, 7, 25° C.): stable
DT50 (hydrolysis) ([2]; pH 9, 25° C.): 50 days

CC1(C)C(C=C(Cl)Cl)C1C(=O)OC(C#N)c1cccc(Oc2ccccc2)c1 (racemic) [Alpha-cypermethrin, A racemate comprising (S)-α-cyano-3-phenoxybenzyl (1R,3R)-3-(2,2-dichlorovinyl)-2,2-dimethylcyclopropanecarboxylate and (R)-α-cyano-3-phenoxybenzyl (1S,3S)-3-(2,2-dichlorovinyl)-2,2-dimethylcyclopropanecarboxylate]
DT50 (hydrolysis) ([2]; pH 4, 50° C.): stable over 10 d
DT50 (hydrolysis) ([2]; pH 7, 20° C.): 101 days
DT50 (hydrolysis) ([2]; pH 9, 20° C.): 7.3 days

CC1(C)C(C=C(Cl)Cl)C1C(=O)OC(C#N)c1cccc(Oc2ccccc2)c1 (racemic) [Cypermethrin, (RS)-α-cyano-3-phenoxybenzyl (1RS,3RS;1RS,3SR)-3-(2,2-dichlorovinyl)-2,2-dimethylcyclopropanecarboxylate]
DT50 (hydrolysis) ([2]; pH 9, 25° C.): 1.8 days

CC(C)=CC1C(C(=O)OCc2coc(Cc3ccccc3)c2)C1(C)C (stereo not drawn) [Resmethrin, 5-benzyl-3-furylmethyl (1RS,3RS;1RS,3SR)-2,2-dimethyl-3-(2-methylprop-1-enyl)cyclopropane carboxylate]
Photolytic stability [3]: Decomposes rapidly on exposure to air and light^+
Solubility in water ([4]; 25° C.): water 37.9 μg/l (25° C.)
Solubility in acetone ([4]; m/v, 20° C.): acetone c. 30%, chloroform,
Solubility in chloroform, dichloromethane, ethyl acetate, toluene ([4]; m/v, 20° C.): > 50%
Solubility in ethanol, n-octanol ([4]; m/v, 20° C.): ethanol, n-octanol c. 6%, n-hexane
Solubility in isopropyl ether ([4]; m/v, 20° C.): ~25%
Solubility in methanol ([4]; m/v, 20° C.): methanol c. 3% (all m/v, 20° C.)
Solubility in n-hexane ([4]; m/v, 20° C.): ~10%
Solubility in xylene ([4]; m/v, 20° C.): > 40%
KOW logP ([1]; 25° C.): logP = 5.43
Stability data [2]: Unstable in alkaline media
